Assay results: US20150164767A1, “Skin Collagen Enhancing Agent” (J-Oil Mills, Inc., priority 2011, published 2015)

How the values were obtained:
[1] = Vitamin K (MK-7) concentration in rat skin after feeding a menaquinone-7-containing diet; format: in vivo; details: Wistar rats, diet with menaquinone-7 150 μg/g, free feeding 90 days, average ± SD
Description: Wistar rats (male, 5-week old) were freely fed with purified feed AIN93G (manufactured by Oriental Yeast) for one week for habituation, and then separated into groups each consisting of three rats so that the total weight of each group was the same. Three rats in each group were freely fed with a rat standard diet (AIN93G) or a menaquinone-7-containing feed (menaquinone-7: 150 μg/g) composed of rat standard diet (AIN93G) and menaquinone-7 for 90 days. Then, vitamin K concentration in the skin was measured. Vitamin K was analyzed by high-performance liquid chromatography with post-column reduction using platinum black and fluorescence detection (Sato, et al., Biochim Biophys. Acta, 1622, 145-150, 2003).

[2] = system: normal human dermal fibroblasts; assay: Type I collagen production by normal human dermal fibroblasts (ELISA, per unit protein); format: cell-based; details: for Type I collagen amount (ng/μg protein) (average ± SD): 48 hours, n=6, control 8.91 ± 0.26, significant (<1%); for production amount of collagen (relative value, no sample = 100, per unit amount of protein): 1.5×10^−5 M, 48 hours culture, n=6, FIG. 1, t-test vs control
Description: Skin collagen enhancing activity of menaquinone-7 was compared with those of vitamin K1 and menaquinone-4, using normal human fibroblasts. A menaquinone-7 reagent (Wako Pure Chemical Industries, Ltd.) was used after purity validation by HPLC. The comparison was performed at a setting concentration of 1.5×10^−5 M, which is a maximum solubility of vitamin Ks in a cell culture system. Vitamin K1 (Wako Pure Chemical Industries, Ltd.) and menaquinone-4 (Sigma) were used after purity validation by HPLC.
Normal human dermal fibroblasts (manufactured by Kurabo Industries Ltd.) were inoculated on a 96-well microplate at a cell density of 2.0×10^4 cells per well using a Dulbecco's modified Eagle's medium (DMEM) (Sigma) containing 0.5% by weight of fetal bovine serum (FBS). The medium was replaced, 48 hours after the inoculation, by DMEM containing 0.5% by weight of FBS and menaquinone-7 in a concentration shown in Table 5. A test maximum concentration solution was prepared by dissolving menaquinone-7 in ethanol and diluting it 100 times with a DMEM containing 0.5% FBS. The testing method was confirmed to be valid using magnesium ascorbic acid phosphate (VC-PMg) as a positive control. The medium containing a sample was cultured for 48 hours, and the medium supernatant was collected and subjected to ELISA for measuring the amount of type I collagen. The cells were lysed in a 0.5% Triton X-100 solution, and the protein amount was measured.
A medium and a type I collagen solution for a standard curve were placed on each well of a high-absorption ELISA plate, and coating at 37° C. for 2 hours was performed, followed by blocking with a 1% bovine serum albumin (BSA) solution at 37° C. for 1 hour. Primary antibody reaction was performed using anti-human collagen type I antibody (rabbit) diluted with a 0.3% BSA solution at 37° C. for 1 hour. Secondary antibody reaction was performed using Histofine MAX-PO(R) (rabbit) diluted with a phosphate buffer at 37° C. for 1 hour. A phosphate-citrate buffer (0.1 M, pH 4.0) solution containing 0.3 mg/mL of 2,2′-azinobis(3-ethylbenzothiazoline-6-sulfonic acid)diammounium salt (ABTS) and 0.03% hydrogen peroxide was added thereto, followed by reaction for 20 min The absorbance of the reaction solution was measured at 405 nm with a microplate reader.
The type I collagen amount in the medium was determined from the standard curve prepared by measurement on the same ELISA plate, and the type I collagen amount per unit amount of protein was calculated by dividing the type I collagen amount in the medium by the total protein amount of the cells.
The test was performed at n=6 for each group containing a sample, and the results are each shown as an average +standard deviation. The statistical processing was performed by a Student t-test against the control group not containing the sample, and the symbol * indicates a significance level of less than 1%.
The collagen enhancing activities of menaquinone-7 for human dermal fibroblasts were investigated in the concentration range shown in Table 5. The test of each group containing a sample was performed at n=6, and the results are each shown as an average value. The statistical processing was performed by a Student t-test against the control group not containing the sample, and the symbol * indicates a significance level of less than 1%.

[3] = system: skin collagen; assay: Skin collagen amount in rats fed MK7-containing diets (Sircol Collagen Assay Kit); format: in vivo, Crl:CD(SD)(SPF) rats; details: 90 days; for Type I collagen amount (μg/mg wet skin weight) (average ± SD): MK7-free 38.43 ± 4.56, not significant; for Rate of increase of collagen (%): vs MK7-free diet group
Description: Four-week old male Crl:CD(SD)(SPF) rats were habituated after arrival till the start of administration, including one week for quarantine. During the quarantine and habituation, general conditions were observed every day, and the weights were measured on the first day (the day following the arrival), the third day, and the seventh day. The rats were separated into four groups each consisting of five rats so that the total weight of each group was the same.
Rats were freely fed for 90 days with any one of three types of menaquinone-7-containing feeds by adding menaquinone-7 to rat standard diet AIN93G: high MK7 diet (menaquinone-7: 45.4 μg/g diet), moderate MK7 diet (menaquinone-7: 15 μg/g diet), and low MK7 diet (menaquinone-7: 4.54 μg/g diet); or MK7-free diet.
The rats were subjected to fasting on the last day and then dissected. The hair at the abdomen region was carefully shaved with hair clippers, and the skin including the derm was sampled. The skin was cut into about 100 mg pieces and they were exactly weighed. The skin collagen amount was measured with a skin collagen measurement kit (trade name: Sircol Collagen Assay Kit, manufactured by Biocolor). Increased amounts of collagen in three groups fed with the diet containing MK7 were compared with that in the group fed with the MK7-free diet as a control. The statistical processing was performed by a Student t-test. A significance level P<0.05 was determined as to have significant difference. […] In the table, the symbol * means a significant difference.

MK-7 concentration (ng/g) in skin [1] [ng/g]	SMILES	Type I collagen amount (ng/μg protein) (average ± SD) ([2]; 0.5 × 10^−6M)	Type I collagen amount (ng/μg protein) (average ± SD) ([2]; 0.5 × 10^−6M, listed as menaquinone-7)	Type I collagen amount (ng/μg protein) (average ± SD) ([2]; 1 × 10^−5M)	Type I collagen amount (ng/μg protein) (average ± SD) ([2]; 1 × 10^−6M)	production amount of collagen (relative value, no sample = 100, per unit amount of protein) [2]	Type I collagen amount (ng/μg protein) (average ± SD) ([2]; 3 × 10^−6M)	menaquinone-7 amount necessary for promoting collagen production ([2]; conversion of 0.5×10^−6 M) [ng/g]	menaquinone-7 amount necessary for promoting collagen production ([2]; human dermal fibroblasts, lowest concentration tested) [nM]	Type I collagen amount (μg/mg wet skin weight) (average ± SD) ([3]; MK7 4.54 μg/g feed)	Rate of increase of collagen (%) ([3]; MK7 4.54 μg/g feed)	Type I collagen amount (μg/mg wet skin weight) (average ± SD) ([3]; MK7 15.0 μg/g feed)	Rate of increase of collagen (%) ([3]; MK7 15.0 μg/g feed)	Rate of increase of collagen (%) ([3]; MK7 45.4 μg/g feed)	amount of collagen in skin, dose dependence ([3]; oral administration, 4.54 to 45.4 μg/g feed)	production amount of collagen ([2]; 6.0×10^−5 M)
427 ± 243	CC(C)=CCC/C(C)=C/CC/C(C)=C/CC/C(C)=C/CC/C(C)=C/CC/C(C)=C/CC/C(C)=C/CC1=C(C)C(=O)c2ccccc2C1=O [Menaquinone-7, menaquinone-7]	10.66 ± 0.48	significantly promotes production of type I collagen	11.03 ± 0.23	10.26 ± 0.44	significantly increased	10.41 ± 0.49	325	500	40.97 ± 6.69	6.6	43.33 ± 2.42	12.8	17.6	tendency of dose-dependently increasing the amount of collagen	–
–	CC1=C(C/C=C(\C)CCC[C@H](C)CCC[C@H](C)CCCC(C)C)C(=O)c2ccccc2C1=O [vitamin K1, reference compound]	–	–	–	–	only menaquinone-7 significantly increased	–	–	–	–	–	–	–	–	–	–
–	CC(C)=CCC/C(C)=C/CC/C(C)=C/CC/C(C)=C/CC1=C(C)C(=O)c2ccccc2C1=O [Menaquinone-4, menaquinone-4, reference compound]	–	–	–	–	only menaquinone-7 significantly increased	–	–	–	–	–	–	–	–	–	did not increase at all
